The values that follow are results of earlier work, collected in patent US20040202714A1, “Oral pharmaceutical composition” (Daiichi Suntory Pharma Co., Ltd., priority 1999, published 2004).

In one data set the test system is Porphyromonas gingivalis. The conditions noted are these: pathogenic bacteria of periodontis.
The test system of another data set is Haemophilus influenzae. The conditions noted are these: gram-negative bacteria such as Haemophilus influenzae.
The test system of a further data set is genus Bacteroides. Particulars: anaerobic bacteria such as the genus Bacteroides.
Data set [1] deals with methicillin-sensitive Staphylococcus aureus (MSSA).
In data set [2] the test system is penicillin-resistant pneumococci (PRSP).
Data set [3] relates to bacterial strains from dental infectious diseases. The conditions noted are these: increasingly resistant strains from dental infectious diseases.

Turning to `C[C@@H](O)[C@H]1C(=O)N2C(C(=O)O)=C([C@H]3CCCO3)S[C@H]12` [Compound 1, sodium (+)-(5R, 6S)-6-[(R)-1-hydroxyethyl]-7-oxo-3-[(R)-2-tetrahydrofuryl]4-thia-1-azabicyclo [3.2.0] hept-2-ene-2-carboxylate 5/2 hydrate], the antibacterial activity result (in the data set on Porphyromonas gingivalis; in data set [1]; in the data set with enterococci; in the data set with oral staphylococci; in data set [2]; in [3]) was “potent antibacterial activity” throughout. Also, the antibacterial activity result with Streptococcus pyrogenes and in the data set with Streptococcus pneumoniae was “potent antibacterial activity” each time. Besides, the antibacterial spectrum result in the data set with Haemophilus influenzae and in the data set on genus Bacteroides was “wide antibacterial spectrum” each time.
